First: COc1ccc2c(c1)CCC(CN1CCC(O)(Cc3ccc(C)cc3)CC1)C2 (racemic)
Second: N#Cc1cccc(NC(=O)C(=O)N2CCC(Cc3ccc(F)cc3)CC2)c1
The melting point of the first is lower: 91 to 94 °C for the first, 135 to 138 °C for the second.

First: O=C(O)CN(C(=O)CCCOc1ccc2c(c1)CN1CC(=O)NC1=N2)C1CCCCC1
Second: O=S1(=O)N=C(NCCCOc2cccc(CN3CCCCC3)c2)c2ccc(F)cc21
The melting point of the first is higher: 194 to 195 °C for the first, 139 to 163 °C for the second.

Compared with `CC1(C)[C@@H](C=C(Cl)c2ccc(Cl)cc2)[C@@H]1C(=O)O` (relative stereo), `COc1ccc(Cl)cc1NC(=O)[C@H]1[C@H](c2ccccc2)C1(C)C` (relative stereo) is higher in melting point: 103 to 106 °C for the first, 155 to 157 °C for the second.

First: CCOC=NC1=C(C#N)C(c2ccc(F)c(Cl)c2)c2ccc3ccccc3c2O1 (stereo not given)
Second: CCc1noc(-c2cn(-c3cccc(Oc4ccc(Cl)cc4)c3)cn2)n1
The melting point of the first is higher: 146 to 148 °C for the first, 120 to 122 °C for the second.

First: CCOC(=O)c1cn(C2CC2)c2oc(CN3CCOCC3)cc2c1=O
Second: CCN1CCCC1CNC(=O)c1c(OC)c(Cl)cc(Cl)c1OC (stereo not given)
The melting point of the first is higher: 196 to 198 °C for the first, 120 to 121 °C for the second.

First: Cc1ccc(N2C(=O)C(O)=C(C(=O)c3ccc(C(C)C)cc3)C2c2ccc(Cn3cncn3)cc2)nn1 (stereo not given)
Second: COc1ccc(C(=O)C2=C(O)C(=O)N(C3OCCO3)C2c2ccccc2)cc1 (stereo not given)
The melting point of the first is higher: 223 °C for the first, 216 to 219 °C for the second.

First: O=C(O)C(CCc1ccccc1)(CCc1ccccc1)C(=O)O
Second: O=C(OC(Cc1ccccc1)C(=O)O)c1ccccc1 (stereo not given)
The melting point of the first is higher: 168 to 172 °C for the first, 113 °C for the second.

First: CCC(=O)Oc1c(OC)cc(C=CC(=O)Nc2cnc3c(C)cc(C)cc3c2-c2ccccc2Cl)cc1OC
Second: CCCC(=O)c1cnc2c(OC)cccc2c1Nc1c(C)cc(O)cc1C
The melting point of the first is lower: 235 to 236 °C for the first, 247 to 248 °C for the second.

Going from `Nc1nccc(Oc2ccc3c(C(=O)Nc4cccc(C(F)(F)F)c4)cccc3c2)n1` to `Fc1cccc2c(NCCc3ccc(Oc4ccc(C(F)(F)F)cn4)cc3)ncnc12`, the melting point falls from 218 °C to 152 °C.

First: CC(=CCCC(C)C1CCC2(C)C3=CCC4C(C)(C)C(=O)CCC4(C)C3=CCC12C)CO (stereo not given)
Second: O=C(CBr)c1ccc2c(c1)CCCS2
The melting point of the first is lower: 75 to 80 °C for the first, 92 to 94 °C for the second.

First: CC(C)(C)OC(=O)NC1CC(=O)C1
Second: Cc1ccc(S(=O)(=O)C2=CC3C=CC2N3C(=O)OC(C)(C)C)cc1 (stereo not given)
The melting point of the first is lower: 75 to 78 °C for the first, 94 to 99 °C for the second.

First: Cc1nc(Cl)c2c(c1O)COC2(C)C
Second: Cc1sc(-c2cccc(Br)c2)nc1O
The melting point of the first is higher: 251 °C for the first, 148 to 149 °C for the second.

First: FC(F)(F)c1nnnn1-c1cccc2ccccc12
Second: O=c1[nH]c(=O)n2c3c(cccc13)Sc1ccc(C(F)(F)F)cc1-2
The melting point of the first is lower: 108 °C for the first, 278 to 280 °C for the second.

First: CCOc1ccccc1-c1ncc(C#N)c(=O)[nH]1
Second: CCCn1nc(OCc2ccc3ccccc3n2)cc1CO
The melting point of the first is higher: 186 to 187 °C for the first, 95 to 96 °C for the second.

First: CCCCC(=O)c1cc2oc(C(=O)O)cc2c(C)c1C
Second: COC(=O)CCc1cc(F)ccc1C(=O)CCCNC(C)=O
The melting point of the first is higher: 188 to 189 °C for the first, 39 to 40 °C for the second.

First: CCc1ccnc(C(=O)c2[nH]c3ccc(CC)cc3c2CC(=O)O)c1
Second: CC(O)c1ccnc(C(=O)c2[nH]c3cc(Cl)ccc3c2CC(=O)O)c1 (stereo not given)
The melting point of the first is higher: 206 °C for the first, 193 to 194 °C for the second.

`COc1ccc(C(=O)Nc2ccc3ccc(Oc4ccccc4OC)nc3n2)cc1` and `COc1ccc(N(C(=O)C(C)c2ccccc2)c2cccc(Nc3c(N)c(=O)c3=O)c2)cc1` (stereo not given) fall in the same range of melting point: 168 to 170 °C for the first, 168 to 170 °C for the second.

Compared with `O=C(O)c1ccc(CCCc2ccccc2Cc2ccccc2)cc1`, `Nc1c(CCO)cccc1C(=O)c1ccc(Cl)cc1` is lower in melting point: 135 to 136 °C for the first, 111 to 126 °C for the second.

First: Fc1cccc(F)c1N1CS/C1=N/N=C\c1ccc(-c2ncn(-c3ccc(OC(F)(F)F)cc3)n2)cc1
Second: Cn1cncc1C(N)(c1ccc(C#N)cc1)c1ccc2c(c1)c(-c1cccc(Cl)c1)cc(=O)n2C (stereo not given)
The melting point of the first is lower: 144 to 146 °C for the first, 245 °C for the second.

First: CN(C#N)C(=O)CCCC(=O)N(C)C#N
Second: CCOC(=O)C(=CNc1cc(C)no1)C(=O)OCC
The melting point of the first is lower: 51.4 to 52.8 °C for the first, 134 to 136 °C for the second.

First: Cc1cc2c(s1)CCCC(=O)N2
Second: COc1ccc2c(c1)c1c(n2C)C(=O)NCCO1
The melting point of the first is lower: 133 to 135 °C for the first, 184 to 186 °C for the second.

Compared with `CCn1cnc(C(N)=O)c1NC(=S)NC(=O)c1ccccc1`, `CCOC(=O)c1cn(Cc2ccccc2)nc1NC(=O)NC(C)(C)C` is lower in melting point: 178 to 180 °C for the first, 130 to 131 °C for the second.

First: Cc1cc(NC(=O)C(C)(O)COc2cccc(Cl)c2)ccc1[N+](=O)[O-] (stereo not given)
Second: Cc1cccc(C)c1NC(=O)c1ccc(O)cc1
The melting point of the first is lower: 104 to 107 °C for the first, 232 to 234 °C for the second.

Compared with `CCNc1nc(Cl)cc(NS(=O)(=O)c2ccc(N)cc2)n1`, `CC(=O)NCc1ccc(CN2CCN(c3nc(Cl)cc(Cl)n3)CC2)cc1` is lower in melting point: 172 to 173 °C for the first, 139 to 140 °C for the second.

Compared with `CCNc1nc(SC)nc(SC)c1[N+](=O)[O-]`, `CCc1cc(C(=O)OC)n(C)n1` is higher in melting point: 149 to 150 °C for the first, 162 to 165 °C for the second.

Compared with `COc1nc2ccc(Br)cc2c2c1C(C)(O)c1ccccc1-2` (stereo not given), `O=C1NN=C(CCc2ccccc2)c2c[nH]c3cccc1c23` is higher in melting point: 159 to 160 °C for the first, 182 to 184 °C for the second.

`COc1cc(C(C#N)CCC(C#N)c2cc(OC)c(OC)c(OC)c2)cc(OC)c1OC` (stereo not given) and `COc1ccc(C2=NNC(=O)[C@H]3CC=CC[C@@H]23)cc1OC` (relative stereo) fall in the same range of melting point: 173 to 174 °C for the first, 173 to 174 °C for the second.

First: CCOC(=O)c1ccc(NC(=O)CNc2ccccc2F)cc1
Second: O=C(NCC1(c2ccccc2)CCCCC1)Nc1ccc(I)cc1
The melting point of the first is lower: 169 to 170 °C for the first, 184 to 190 °C for the second.

Compared with `CCCCCCN(C)c1ccc(C=C2SC(=S)N(CC(=O)NS(C)(=O)=O)C2=O)cc1`, `NC(=S)NCCCCCC(=O)Nc1ccc(C(F)(F)F)cc1` is lower in melting point: 227 to 230 °C for the first, 140 to 142 °C for the second.

First: CCCCCCCCCCOc1ccc(NC(=O)c2ccc(OC(C)=O)cc2)cc1OCCCCCCCCCC
Second: CCCCCCCCCCCCCCOc1ccc(CC(=O)OCC)cc1OC
The melting point of the first is higher: 117 °C for the first, 40 to 41 °C for the second.

Compared with `CC(C)CCOc1c(-c2ccc(S(C)(=O)=O)cc2)cnn(CC(F)(F)F)c1=O`, `COCCOc1ccc(CCNC(=O)C(F)(F)F)cc1S(=O)(=O)N=CN(C)C` is higher in melting point: 111 to 113 °C for the first, 134 to 136 °C for the second.

First: CCOc1ccc2c(OC(=O)C(F)(F)F)c3cc4ccccc4cc3c(OC(=O)C(F)(F)F)c2c1
Second: FC(F)(F)c1cc(Nc2nc3ccccc3o2)cc(C(F)(F)F)c1
The melting point of the first is lower: 165 to 170 °C for the first, 178 to 180 °C for the second.

First: O=C(CCCN1CCC2(CC1)SC(c1ccc(Cl)cc1)c1ccccc12)c1ccc(F)cc1F (stereo not given)
Second: O=c1[nH]c2ccccc2n1CCN1CCC(Cc2c[nH]c3ccc(F)cc23)CC1
The melting point of the first is lower: 98 to 100 °C for the first, 220 °C for the second.

First: CC(C)(NC(=O)CCSC(=O)c1ccccc1)C(=O)O
Second: CC(=O)OC(=CC(=O)O)CC(=O)Nc1ccccc1
The melting point of the first is higher: 142 to 143 °C for the first, 125 to 126 °C for the second.

First: Cc1cc2cc(CN3CCCC3)cnc2cc1NC(=O)c1ccc(-c2ccsc2)cc1
Second: COc1ccc(-c2ccc3cnc(Nc4ccc(N5CCN(CC(N)=O)CC5)c(F)c4)nn23)cn1
The melting point of the first is lower: 187 °C for the first, 217 °C for the second.

`O=C(c1ccccc1)n1c(=O)c(C(F)(F)F)cn(C2CC(OCc3ccccc3)C(CO)O2)c1=O` (stereo not given) and `O[C@@H]1CCC(c2ccccc2)(c2ccccc2)[C@@H]2CN(Cc3ccccc3)C[C@H]12` cannot be ordered by melting point: 154 to 155 °C for the first, 154 °C for the second.

Compared with `COc1ccc(C(=O)c2c(Cl)cc(Cl)cc2Cl)cc1Cc1ccc(=O)n(C)n1`, `N#CCCNC(=O)c1cccc(-c2ccc3c(c2)C(c2cc(Cl)ccc2Cl)CC3)c1` (stereo not given) is lower in melting point: 150 °C for the first, 135 to 136 °C for the second.

First: Clc1nc(Cl)c(-c2ccccc2)c(-c2ccccc2)n1
Second: CN(CCCO)C(=O)c1cc2ccccc2c(-c2ccccc2I)n1
The melting point of the first is higher: 144 to 146 °C for the first, 51 to 52 °C for the second.

Compared with `COc1ccc(C=CC(=O)O)cc1C=O`, `O=Cc1ccc(OCC(F)(F)F)c([N+](=O)[O-])c1` is lower in melting point: 223 to 225 °C for the first, 126 to 127 °C for the second.

First: CNC(=O)C(Cc1ccc(OC)cc1)NC(=O)C(C)(CC(C)C)c1c(S)cccc1Cl (stereo not given)
Second: CC(C)(C)Sc1c(CC(C)(C)C(=O)O)n(Cc2ccc(Cl)cc2)c2ccc(OCc3ccccn3)cc12
The melting point of the first is lower: 159 to 163 °C for the first, 189 to 190 °C for the second.

First: C=CCOc1cc([N+](=O)[O-])ccc1Cl
Second: O=[N+]([O-])c1ccc2c(c1)CN(C(c1ccccc1)c1ccccc1)C2
The melting point of the first is lower: 58 to 59.5 °C for the first, 154 to 155 °C for the second.

First: CNCc1nc(-c2ncn3c2[C@@H]2CCN2C(=O)c2cc(F)ccc2-3)no1
Second: CC(C)(C)Nc1c(NCc2cccc(F)c2)c(=O)c1=O
The melting point of the first is lower: 155 to 160 °C for the first, 295 to 297 °C for the second.

First: COc1ccc(OC(N)=O)cc1
Second: COc1ccc(CS[C@H]2C[C@@H](C(N)=O)N(C)C2)cc1
The melting point of the first is higher: over 300 °C for the first, 113 to 114 °C for the second.

First: CCCCCCCCCCCCCCCCCCCCCCOC(=O)P(=O)(OC)OC
Second: CCOc1ccc(CCN(C(=O)O)C(=O)[C@H](C)NC(C)=O)cc1OCC
The melting point of the first is lower: 60 to 61 °C for the first, 84 to 86 °C for the second.

First: CCOC(=O)/C(=N\OC(C)(C)C)c1csc(N)n1
Second: CON(Cc1ccc(C(=O)OC(C)(C)C)cc1)C(=O)C1=C(O)C(=O)N(C)C1
The melting point of the first is lower: 111 to 112 °C for the first, 157 to 160 °C for the second.

Compared with `Cc1nc(-c2nc(C)c(-c3ccnc(Nc4ccc(N5CCOCC5)cc4)n3)s2)cs1`, `O=C1CS(=O)(=O)C(C(=O)Nc2ccc(Cl)cc2)Cc2cc3c(cc21)OCCO3` (stereo not given) is higher in melting point: 262 to 263 °C for the first, 273 to 274 °C for the second.

First: CNC(=O)Oc1cccc(C2CCCN2CCN2C(=O)c3ccccc3C2=O)c1 (stereo not given)
Second: O=C(Nc1ccc2[nH]ncc2c1)O[C@@H](c1cccc(C(F)(F)F)c1)[C@@H]1CCCCN1
The melting point of the first is lower: 96 to 98 °C for the first, 190 °C for the second.

First: CC(C)(C)OC(=O)Nc1cc(N2CCC(OCCOC3CCCCO3)CC2)c(-c2ccc(F)cc2)cc1NC(=O)CC(=O)c1cccc(-n2ccnc2)c1 (racemic)
Second: O=C(O)CCc1oc(N2CCCC2)nc1-c1ccc(Cl)cc1
The melting point of the first is lower: 57 to 58 °C for the first, 199 to 200 °C for the second.

First: Cc1cc(-c2cc(O)c(SCc3ccccc3)c(=O)o2)cc(C)c1O[Si](C)(C)C(C)(C)C
Second: CCOC(=O)C1=C(C)NC(c2nccn2C)=NC1c1ccc(F)cc1 (stereo not given)
The melting point of the first is higher: 137 to 139 °C for the first, 134 to 136 °C for the second.

First: Cc1cccc(C)c1NCC(N)=O
Second: N#Cc1c(N2CCCC2)nsc1N
The melting point of the first is lower: 89 to 92 °C for the first, 198 °C for the second.

From a melting point compilation (Tetko et al.; mined from patent text by program, amines drawn as free bases though some values may be those of a salt)
